Key:
Test in all cases: relative viability (nuclei count vs DMSO), 5 days (fraction); higher = more cells survive
[1] = tested on: NCI-H2023
How it was run: (§1)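 Dosing by pin tool came one day after lung cancer cell lines were seeded in 1536-well plates, using either one drug or a fixed anchor-drug dose plus five library-drug doses (not always all listed) in √10 steps. After 5 days, nuclei were counted on 4× images. Relative viability is treated-well nuclei count divided by vehicle-well nuclei count, and values are medians of duplicate plates.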

[2] = tested on: H3255
How it was run: as §1

[3] = tested on: SK-LU-1
How it was run: as §1

[4] = tested on: LXF-289
How it was run: as §1

[5] = tested on: NCI-H2342
How it was run: as §1

[6] = tested on: EMC-BAC-2
How it was run: as §1

[7] = tested on: HOP-62
How it was run: as §1

[8] = tested on: EPLC-272H
How it was run: as §1

[9] = tested on: NCI-H1993
How it was run: as §1

[10] = tested on: NCI-H647
How it was run: as §1

[11] = tested on: SW 1573
How it was run: as §1

[12] = tested on: PC-14
How it was run: as §1

[13] = tested on: NCI-H1650
How it was run: as §1

[14] = tested on: NCI-H727
How it was run: as §1

[15] = tested on: NCI-H2126
How it was run: as §1

[16] = tested on: LCLC-97TM1
How it was run: as §1

[17] = tested on: NCI-H2347
How it was run: as §1

[18] = tested on: NCI-H2009
How it was run: as §1

[19] = tested on: NCI-H661
How it was run: as §1

[20] = tested on: NCI-H2085
How it was run: as §1

[21] = tested on: NCI-H322M
How it was run: as §1

[22] = tested on: NCI-H1915
How it was run: as §1

**Q.** Which relative viability ([1]; first compound 0.04 µM) does the source give for `O=C(O)c1ccc(-c2c[nH]c3ncc(-c4ccccc4)cc23)cc1C1CCCC1` + CC(=O)c1c(C)c2cnc(Nc3ccc(N4CCNCC4)cn3)nc2n(C2CCCC2)c1=O [Palbociclib] (partner 0.5 µM) here?
**A.** 0.407

**Q.** And the relative viability ([1]; first compound 0.1265 µM)?
**A.** 0.394

**Q.** And the relative viability ([1]; first compound 0.4 µM)?
**A.** 0.358

**Q.** What about the relative viability ([1]; first compound 1.265 µM) of the same compound?
**A.** 0.312

**Q.** And the relative viability ([2]; first compound 0.04 µM)?
**A.** 0.303

**Q.** And the relative viability ([2]; first compound 0.1265 µM)?
**A.** 0.325

**Q.** What about the relative viability ([2]; first compound 0.4 µM) of the same compound?
**A.** 0.286

**Q.** What about the relative viability ([2]; first compound 1.265 µM) of the same compound?
**A.** 0.312

**Q.** And the relative viability ([3]; first compound 0.04 µM)?
**A.** 0.358

**Q.** What about the relative viability ([3]; first compound 0.1265 µM) of the same compound?
**A.** 0.381

**Q.** What about the relative viability ([3]; first compound 0.4 µM) of the same compound?
**A.** 0.366

**Q.** What about the relative viability ([3]; first compound 1.265 µM) of the same compound?
**A.** 0.359

**Q.** And the relative viability ([4]; first compound 0.04 µM)?
**A.** 0.573

**Q.** What about the relative viability ([4]; first compound 0.1265 µM) of the same compound?
**A.** 0.584

**Q.** What about the relative viability ([4]; first compound 0.4 µM) of the same compound?
**A.** 0.57

**Q.** What about the relative viability ([4]; first compound 1.265 µM) of the same compound?
**A.** 0.521

**Q.** What about the relative viability ([5]; first compound 0.04 µM) of the same compound?
**A.** 0.465

**Q.** What about the relative viability ([5]; first compound 0.1265 µM) of the same compound?
**A.** 0.568

**Q.** And the relative viability ([5]; first compound 0.4 µM)?
**A.** 0.479

**Q.** What about the relative viability ([5]; first compound 1.265 µM) of the same compound?
**A.** 0.517

**Q.** What about the relative viability ([6]; first compound 0.04 µM) of the same compound?
**A.** 0.534

**Q.** And the relative viability ([6]; first compound 0.1265 µM)?
**A.** 0.544

**Q.** And the relative viability ([6]; first compound 0.4 µM)?
**A.** 0.529

**Q.** What about the relative viability ([6]; first compound 1.265 µM) of the same compound?
**A.** 0.519

**Q.** And the relative viability ([7]; first compound 0.04 µM)?
**A.** 0.426

**Q.** And the relative viability ([7]; first compound 0.1265 µM)?
**A.** 0.414

**Q.** What about the relative viability ([7]; first compound 0.4 µM) of the same compound?
**A.** 0.443

**Q.** What about the relative viability ([7]; first compound 1.265 µM) of the same compound?
**A.** 0.434

**Q.** And the relative viability ([8]; first compound 0.04 µM)?
**A.** 0.337

**Q.** What about the relative viability ([8]; first compound 0.1265 µM) of the same compound?
**A.** 0.332

**Q.** And the relative viability ([8]; first compound 0.4 µM)?
**A.** 0.321

**Q.** And the relative viability ([8]; first compound 1.265 µM)?
**A.** 0.294

**Q.** What about the relative viability ([9]; first compound 0.04 µM) of the same compound?
**A.** 0.62

**Q.** And the relative viability ([9]; first compound 0.1265 µM)?
**A.** 0.601

**Q.** And the relative viability ([9]; first compound 0.4 µM)?
**A.** 0.596

**Q.** What about the relative viability ([9]; first compound 1.265 µM) of the same compound?
**A.** 0.537

**Q.** What about the relative viability ([10]; first compound 0.04 µM) of the same compound?
**A.** 0.399

**Q.** What about the relative viability ([10]; first compound 0.1265 µM) of the same compound?
**A.** 0.434

**Q.** And the relative viability ([10]; first compound 0.4 µM)?
**A.** 0.453

**Q.** What about the relative viability ([10]; first compound 1.265 µM) of the same compound?
**A.** 0.33

**Q.** What about the relative viability ([11]; first compound 0.04 µM) of the same compound?
**A.** 0.442

**Q.** What about the relative viability ([11]; first compound 0.1265 µM) of the same compound?
**A.** 0.355

**Q.** What about the relative viability ([11]; first compound 0.4 µM) of the same compound?
**A.** 0.309

**Q.** What about the relative viability ([11]; first compound 1.265 µM) of the same compound?
**A.** 0.268

**Q.** What about the relative viability ([12]; first compound 0.04 µM) of the same compound?
**A.** 0.473

**Q.** And the relative viability ([12]; first compound 0.1265 µM)?
**A.** 0.532

**Q.** What about the relative viability ([12]; first compound 0.4 µM) of the same compound?
**A.** 0.396

**Q.** What about the relative viability ([12]; first compound 1.265 µM) of the same compound?
**A.** 0.486

**Q.** What about the relative viability ([13]; first compound 0.04 µM) of the same compound?
**A.** 0.34

**Q.** What about the relative viability ([13]; first compound 0.1265 µM) of the same compound?
**A.** 0.285

**Q.** What about the relative viability ([13]; first compound 0.4 µM) of the same compound?
**A.** 0.321

**Q.** And the relative viability ([13]; first compound 1.265 µM)?
**A.** 0.193

**Q.** And the relative viability ([14]; first compound 0.04 µM)?
**A.** 0.676

**Q.** What about the relative viability ([14]; first compound 0.1265 µM) of the same compound?
**A.** 0.662

**Q.** What about the relative viability ([14]; first compound 0.4 µM) of the same compound?
**A.** 0.652

**Q.** And the relative viability ([14]; first compound 1.265 µM)?
**A.** 0.638

**Q.** And the relative viability ([15]; first compound 0.04 µM)?
**A.** 0.361

**Q.** What about the relative viability ([15]; first compound 0.1265 µM) of the same compound?
**A.** 0.358

**Q.** And the relative viability ([15]; first compound 0.4 µM)?
**A.** 0.369

**Q.** What about the relative viability ([15]; first compound 1.265 µM) of the same compound?
**A.** 0.345

**Q.** And the relative viability ([16]; first compound 0.04 µM)?
**A.** 0.267

**Q.** What about the relative viability ([16]; first compound 0.1265 µM) of the same compound?
**A.** 0.222

**Q.** What about the relative viability ([16]; first compound 0.4 µM) of the same compound?
**A.** 0.187

**Q.** And the relative viability ([16]; first compound 1.265 µM)?
**A.** 0.217

**Q.** What about the relative viability ([17]; first compound 0.04 µM) of the same compound?
**A.** 0.453

**Q.** And the relative viability ([17]; first compound 0.1265 µM)?
**A.** 0.446

**Q.** And the relative viability ([17]; first compound 0.4 µM)?
**A.** 0.386

**Q.** What about the relative viability ([17]; first compound 1.265 µM) of the same compound?
**A.** 0.438

**Q.** What about the relative viability ([18]; first compound 0.04 µM) of the same compound?
**A.** 0.152

**Q.** And the relative viability ([18]; first compound 0.1265 µM)?
**A.** 0.246

**Q.** What about the relative viability ([18]; first compound 0.4 µM) of the same compound?
**A.** 0.175

**Q.** And the relative viability ([18]; first compound 1.265 µM)?
**A.** 0.209

**Q.** What about the relative viability ([19]; first compound 0.04 µM) of the same compound?
**A.** 0.414

**Q.** And the relative viability ([19]; first compound 0.1265 µM)?
**A.** 0.411

**Q.** And the relative viability ([19]; first compound 0.4 µM)?
**A.** 0.406

**Q.** And the relative viability ([19]; first compound 1.265 µM)?
**A.** 0.389

**Q.** And the relative viability ([20]; first compound 0.04 µM)?
**A.** 0.448

**Q.** What about the relative viability ([20]; first compound 0.1265 µM) of the same compound?
**A.** 0.476

**Q.** And the relative viability ([20]; first compound 0.4 µM)?
**A.** 0.457

**Q.** What about the relative viability ([20]; first compound 1.265 µM) of the same compound?
**A.** 0.349

**Q.** What about the relative viability ([21]; first compound 0.04 µM) of the same compound?
**A.** 0.466

**Q.** What about the relative viability ([21]; first compound 0.1265 µM) of the same compound?
**A.** 0.461

**Q.** What about the relative viability ([21]; first compound 0.4 µM) of the same compound?
**A.** 0.448

**Q.** What about the relative viability ([21]; first compound 1.265 µM) of the same compound?
**A.** 0.461

**Q.** What about the relative viability ([22]; first compound 0.04 µM) of the same compound?
**A.** 0.553

**Q.** What about the relative viability ([22]; first compound 0.1265 µM) of the same compound?
**A.** 0.527

**Q.** What about the relative viability ([22]; first compound 0.4 µM) of the same compound?
**A.** 0.452

**Q.** And the relative viability ([22]; first compound 1.265 µM)?
**A.** 0.428

Reference: the supplement of paper PMC10307832
